In patent publication US10471059B2, “Compositions and methods of using tyrosine kinase inhibitors” (YALE UNIVERSITY, priority 2015, dated 2019):
“Also recorded” adds a separate entry of the source. Read-outs that look alike come from different tables or passages of the source. Marks after values point to notes of the source that are not given here.

Tests used:
Ptpn11^D61G/+ mice [1] = test: Growth, facial dysmorphia and splenomegaly after postnatal dasatinib; type: in vivo; details: postnatal 0.1 mg/kg/day, NS mice
Excerpt: Differences within treatment groups were significant (p<0.001, Two-way ANOVA test) from 3-weeks to 8-weeks old. FIG. 19b is a graph showing body weight measured at P42. FIG. 19c is a graph showing body length measured at P42. FIG. 19d is a graph showing body weight measured at P56. […]. FIG. 19e is a graph showing body length measured at P56.
(n=10˜16 for each group; Two-way ANOVA test).
All data represent mean±SEM. *, p<0.05; ***, p<0.001.
(§1) Vehicle-injected mice served as control.

[2] = tested on: WT and Ptpn11^D61G/+ mice; details: for % EF (ejection fraction) / % FS (fractional shortening) / IVS, d (Intraventricular septum wall thickness, diastole) / IVS, s (Intraventricular septum wall thickness, systole) / LV vol, d (left ventricle volume, diastole) / LV vol, s (left ventricle volume, systole) / LVID, d (left ventricular internal dimension, diastole) / LVID, s (left ventricular internal dimension, systole) / LVPW, d (left ventricular posterior wall thickness, diastole) / LVPW, s (left ventricular posterior wall thickness, systole): n = 8, Mean ± SEM;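 as to all read-outs here: echocardiography in isoflurane-anesthetized mice, M-mode tracings averaged over three to six heartbeats, FS derived from diastolic and systolic LVID, vehicle-injected mice as control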
Protocol: Echocardiographic Studies—Cardiac dimensions and function were analyzed by echocardiography using a Vevo 770 console, Mice were lightly anesthetized with inhaled isoflurane (0.2% in O2). All measurements were obtained from three to six consecutive cardiac cycles, and the averaged values used for analysis. Interventricular septum wall (IVS), left ventricular internal dimension (LVID) and left ventricular posterior wall thickness (LVPW) in both end-diastolic (d), end-systolic (s) were measured from the and M-mode tracings. Diastolic measurements were performed using the leading-edge method of the American Society of Echocardiography. For TM-mode measurements, left ventricular end-diastolic volume (LV vol,d) and end-systolic volume (LV vol,s) were calculated. Ejection fraction percentage (EF) was calculated as [(LVvol,d−LVvol,s)/VLvol,d]×100, and fractional shortening percentage was calculated as [(LVID,d−LVID,s)/LVID,d]×100.
Animal Handling—Ptpn11^D61G/+ mice were provided from Dr. Benjamin Neel (University of Toronto, Toronto) and were genotyped as described previously^9. Briefly, Ptpn11^D61G/+ male mice were crossed with wild type C75BL/6×SV 129 female mice and their offspring were genotyped by PCR and digestion with AgeI for the D61G allele. Dasatinib (Biovision) was suspended in vehicle (1% DMSO in phosphate buffer saline), For prenatal treatment, dasatinib was injected i.p. (0.1 mg/kg body weight) into pregnant mice daily, beginning on gestational day 7.5 (E7.5) continuing (in nursing females) until postnatal day 9. Vehicle-injected mice served as control. Beginning at P10, dasatinib or vehicle alone was injected (i.p.) directly into pups daily, until 8-weeks after birth. For postnatal treatment, dasatinib was injected (i.p.) into pups at P10, until 6-weeks after birth; injection was discontinued for 2-weeks.
Echocardiography—Mice were anesthetized in a sealed plastic chamber with 1% isofurane in oxygen until immobile, and then were transferred onto a heated procedure board (37° C.). Animal were kept anesthetized with 1% isoflurane supplied by a nose cone connected to the isoflurane vaporizer during the entire procedure. The scan head was placed on the chest of the mouse and stable image signals (both B mode and M mode) were acquired and data analyzed with Vevo 770 (VisualSonics). Systolic and distolic left ventricle peripheral wall thickness, chamber diameter and interventricular wall thickness were measured with M mode image. Percentage of ejection fraction (EF) and fractional shortening (FS) were calculated.

[3] = tested on: WT and Ptpn11^D61G/+ mice; test: Invasive hemodynamic study, postnatal dasatinib treatment; type: in vivo
Protocol: as §1
Hemodynamic Study—Anesthesia was induced by intraperitoneal injection of ketamine (100 mg/kg) and xylazine (5 mg/kg). The animal was placed on a warm pad and an incision was made on the neck. The right side carotid artery was exposed and a 1.9-French transducer-tipped catheter (Millar Inc., Houston, Tex.) was inserted into the artery, and then was advanced into left ventricle. Left ventricular pressures including high-fidelity positive, negative dp/dt and heart rate were measured under basal conditions. Data were recorded and analyzed by using LabChart software.

[4] = tested on: Ptpn11^D61G/+ X WT breeder; test: Progeny from prenatal dasatinib treated Ptpn11D61G/+ X WT breeder
Protocol: as §1
Dasatinib was administered into pregnant mothers and amelioration of cardiac defects in NS mice was assessed. Dasatinib was administered at 0.1, 0.5 or 1.0 mg/kg daily interperitoneally into wild type pregnant mice intercrossed with NS mice, beginning at embryonic day 7 until postnatal day 9 (in nursing females). After postnatal day 10 (P10), dasatinib injections resumed directly into individual pups daily until 8-weeks (P56) after birth (FIG. 14a).

Ptpn11^D61G/+ mice [5] = test: Heart tissue immunoblot for SERCA2A, Troponin I, Troponin T; type: in vivo; details: postnatal dasatinib; NS mice
Excerpt: Representative traces of cardiomyocyte dynamics for calcium transient traces (top) and their corresponding sarcomere leng shortening traces (bottom). FIG. 16b is a graph showing a summary of the data of relative calcium release (Rmag Ca^2+). FIG. 16c is a graph showing the fraction of sarcomere shortening (n=111˜162 cells from 3 mice for each group). FIG. 16d is an image showing heart tissue immunoblotted with anti-SERCA2A, Troponin I (tTnI), Troponin T (tTnT) and Tubulin antibodies. […] FIG. 16e is a graph showing SERCA2A expression. FIG. 16f is a graph showing Troponin I expression. FIG. 16g is a graph showing Troponin T. Expression was statistically assessed after normalization with tubulin (n=6 for each group).
Immunoprecipitation and Immunoblotting—Cells or heart tissue were lysed on ice in lysis buffer (25 mM Tris-HCl, pH 7.4, 136 mM NaCl, 1 mM CaCl2, 1 mM MgCl2, 1% Nonidet P-40, 1 mM Na3VO4, 10 mM NaF, 1 mM benzamidine, 1 mM PMSF, 1 μg/ml pepstatin A, 5 μg/ml aprotinin, and 5 μg/ml leupeptin). Cell or tissue lysates were incubated at 4° C. for 30 min and clarified by centrifugation at 14,000 rpm at 4° C. for 10 min. Protein concentration was determined using the BCA reagent according to the manufacturer's instructions (Pierce). For immunoprecipitations, 500 μg of lysate was incubated with 1 μg of indicated antibodies at 4° C. for overnight. […]

[6] = cited from earlier work
[7] = prenatal 0.1 mg/kg i.p. daily from E7.5, Ptpn11D61G/+ mice, P42
[8] = prenatal 0.1 mg/kg i.p. daily from E7.5, WT mice, P42
[9] = prenatal 0.1 mg/kg i.p. daily from E7.5 continued to P56, Ptpn11D61G/+ mice, P56
[10] = prenatal 0.1 mg/kg i.p. daily from E7.5 continued to P56, WT mice, P56
[11] = Ptpn11D61G/+ mice, P56, n = 9, Mean ± SEM
[12] = WT mice, P56, n = 8, Mean ± SEM

Question: Which “growth (body weight, body length)” value (Ptpn11^D61G/+ mice [1]) does the source give for Cc1nc(Nc2ncc(C(=O)Nc3c(C)cccc3Cl)s2)cc(N2CCN(CCO)CC2)n1.O [Dasatinib, N-(2-chloro-6-methylphenyl)-2-[[6-[4-(2-hydroxyethyl)-1-piperazinyl]-2-methyl-4-pyrimidinyl]amino]-5-thiazole carboxamide monohydrate] here?
Answer: did not improve

Question: What about the facial dismorphism (Ptpn11^D61G/+ mice [1]; monohydrate) of the same compound?
Answer: did not improve

Question: What about the splenomegaly (Ptpn11^D61G/+ mice [1]; monohydrate) of the same compound?
Answer: did not improve; also recorded: did not rescue

Question: What about the “% EF (ejection fraction)” value [2, 7] of the same compound?
Answer: 62.62 ± 2.75 %

Question: What about the “% FS (fractional shortening)” value [2, 7] of the same compound?
Answer: 34.29 ± 2.09 %

Question: What about the “IVS, d (Intraventricular septum wall thickness, diastole)” value (shortened to “IVS, d”) [2, 7] of the same compound?
Answer: 0.65 ± 0.06 mm

Question: What about the “IVS, s (Intraventricular septum wall thickness, systole)” value (from here on “IVS, s”) [2, 7] of the same compound?
Answer: 0.97 ± 0.10 mm

Question: What about the “LV vol, d (left ventricle volume, diastole)” value (“LV vol, d” below) [2, 7] of the same compound?
Answer: 60.93 ± 3.75 mm^3

Question: What about the “LV vol, s (left ventricle volume, systole)” value (from here on “LV vol, s”) [2, 7] of the same compound?
Answer: 24.21 ± 1.56 mm^3

Question: And the “LVID, d (left ventricular internal dimension, diastole)” value (from here on “LVID, d”) [2, 7]?
Answer: 3.61 ± 0.12 mm

Question: What about the “LVID, s (left ventricular internal dimension, systole)” value (shortened to “LVID, s”) [2, 7] of the same compound?
Answer: 2.32 ± 0.12 mm

Question: What about the “LVPW, d (left ventricular posterior wall thickness, diastole)” value (shortened to “LVPW, d”) [2, 7] of the same compound?
Answer: 0.70 ± 0.04 mm

Question: What about the “LVPW, s (left ventricular posterior wall thickness, systole)” value (from here on “LVPW, s”) [2, 7] of the same compound?
Answer: 1.12 ± 0.07 mm

Question: And the “% EF (ejection fraction)” value [2, 8]?
Answer: 64.24 ± 2.52%

Question: What about the “% FS (fractional shortening)” value [2, 8] of the same compound?
Answer: 34.70 ± 1.82%

Question: And the “IVS, d” value [2, 8]?
Answer: 0.67 ± 0.04 mm

Question: And the “IVS, s” value [2, 8]?
Answer: 1.08 ± 0.09 mm

Question: What about the “LV vol, d” value [2, 8] of the same compound?
Answer: 67.51 ± 2.54 mm^3

Question: And the “LV vol, s” value [2, 8]?
Answer: 22.26 ± 1.95 mm^3

Question: What about the “LVID, d” value [2, 8] of the same compound?
Answer: 3.93 ± 0.08 mm

Question: And the “LVID, s” value [2, 8]?
Answer: 2.49 ± 0.09 mm

Question: And the “LVPW, d” value [2, 8]?
Answer: 0.76 ± 0.05 mm

Question: And the “LVPW, s” value [2, 8]?
Answer: 1.13 ± 0.04 mm

Question: And the “% EF (ejection fraction)” value [2, 9]?
Answer: 51.83 ± 1.60%

Question: And the “% FS (fractional shortening)” value [2, 9]?
Answer: 26.22 ± 1.01%

Question: What about the “IVS, d” value [2, 9] of the same compound?
Answer: 0.70 ± 0.03 mm

Question: What about the “IVS, s” value [2, 9] of the same compound?
Answer: 1.02 ± 0.05 mm

Question: What about the “LV vol, d” value [2, 9] of the same compound?
Answer: 73.00 ± 3.42 mm^3

Question: What about the “LV vol, s” value [2, 9] of the same compound?
Answer: 37.43 ± 2.08 mm^3

Question: And the “LVID, d” value [2, 9]?
Answer: 4.06 ± 0.11 mm

Question: What about the “LVID, s” value [2, 9] of the same compound?
Answer: 3.08 ± 0.07 mm

Question: What about the “LVPW, d” value [2, 9] of the same compound?
Answer: 0.68 ± 0.02 mm

Question: And the “LVPW, s” value [2, 9]?
Answer: 0.93 ± 0.06 mm

Question: And the “% EF (ejection fraction)” value [2, 10]?
Answer: 50.96 ± 2.38 %

Question: What about the “% FS (fractional shortening)” value [2, 10] of the same compound?
Answer: 25.84 ± 1.47 %

Question: And the “IVS, d” value [2, 10]?
Answer: 0.69 ± 0.04 mm

Question: What about the “IVS, s” value [2, 10] of the same compound?
Answer: 1.07 ± 0.05 mm

Question: What about the “LV vol, d” value [2, 10] of the same compound?
Answer: 79.32 ± 1.22 mm^3

Question: What about the “LV vol, s” value [2, 10] of the same compound?
Answer: 40.34 ± 1.60*** mm^3

Question: What about the “LVID, d” value [2, 10] of the same compound?
Answer: 4.21 ± 0.07 mm

Question: And the “LVID, s” value [2, 10]?
Answer: 3.04 ± 0.10 mm

Question: And the “LVPW, d” value [2, 10]?
Answer: 0.71 ± 0.04 mm

Question: What about the “LVPW, s” value [2, 10] of the same compound?
Answer: 0.95 ± 0.05 mm

Question: What about the “cardiac function (EF and FS)” value ([2]; prenatal 0.1 mg/kg, NS mice, P42, monohydrate) of the same compound?
Answer: improves cardiac function; also recorded: completely restored to wild type parameters; also recorded: complete restoration of cardiac function

Question: What about the “cardiac failure on continued administration” value ([2]; prenatal regimen continued an additional 2 weeks to P56, wild type and NS mice) of the same compound?
Answer: induced cardiac failure

Question: What about the “aortic blood pressure and left ventricular pressure” value ([3]; NS mice, P56) of the same compound?
Answer: significantly restored

Question: What about the “+dp/dt” value [3, 11] of the same compound?
Answer: 7718 ± 498 mmHg/s

Question: And the Diastolic pressure [3, 11]?
Answer: 84.0 ± 3.5 mmHg

Question: And the End diastolic pressure [3, 11]?
Answer: 11.1 ± 0.7 mmHg

Question: What about the Left ventricle pressure [3, 11] of the same compound?
Answer: 127.9 ± 4.5 mmHg

Question: What about the Mean arterial pressure [3, 11] of the same compound?
Answer: 96.8 ± 4.2 mmHg

Question: What about the Pulse pressure [3, 11] of the same compound?
Answer: 63.7 ± 4.4 mmHg

Question: What about the Systolic pressure [3, 11] of the same compound?
Answer: 129.3 ± 6.2 mmHg

Question: And the “−dp/dt” value [3, 11]?
Answer: −6189 ± 626 mmHg/s

Question: And the “+dp/dt” value [3, 12]?
Answer: 8626 ± 476 mmHg/s

Question: And the Diastolic pressure [3, 12]?
Answer: 95.1 ± 4.2 mmHg

Question: And the End diastolic pressure [3, 12]?
Answer: 8.7 ± 1.3 mmHg

Question: What about the Left ventricle pressure [3, 12] of the same compound?
Answer: 136.5 ± 2.5 mmHg

Question: And the Mean arterial pressure [3, 12]?
Answer: 112.1 ± 4.0 mmHg

Question: What about the Pulse pressure [3, 12] of the same compound?
Answer: 65.2 ± 4.6 mmHg

Question: What about the Systolic pressure [3, 12] of the same compound?
Answer: 146.2 ± 5.1 mmHg

Question: And the “−dp/dt” value [3, 12]?
Answer: −6529 ± 847 mmHg/s

Question: And the adverse effects ([4]; mouse, in vivo, ip, 0.1 mg/kg)?
Answer: no observable adverse effects

Question: What about the Dead pups ([4]; prenatal dasatinib 0.1 mg/kg, number of pups) of the same compound?
Answer: 4

Question: And the embryonic lethality ([4]; prenatal treatment at 0.5 and 1.0 mg/kg/per day i.p.)?
Answer: embryonic lethality

Question: And the “SERCA2A protein expression in cardiac tissue” value (Ptpn11^D61G/+ mice [5])?
Answer: completely normalized

Question: And the “TnT and TnI expression levels in heart” value (Ptpn11^D61G/+ mice [5])?
Answer: returned to those equivalent to vehicle-treated wild type mice

Question: What about the “dose of therapeutic effects in humans” value ([6]; humans) of the same compound?
Answer: ~2 mg/kg

Question: And the “equivalent dose in mice of the human therapeutic dose” value ([6]; mice equivalent)?
Answer: ~24 mg/kg
